# Assay results taken from patent US5521155A, “Amides of teicoplanin compounds” (Gruppo Lepetit S.p.A, priority 1985, dated 1996).
# Experiments:
# [1] = system: Proteus vulgaris X 19H ATCC 881; assay: In vitro antibacterial activity, standard agar-dilution test (MIC); format: cell-based; details: inoculum about 10^4 CFU/ml, 18-24 h at 37° C.
# Protocol: (§1) The culture medium ISOSENSITEST BROTH (Oxoid) and the colture medium TODD-[…] BROTH (Difco) are used for growing staphylococci and streptococci, respectively. Broth cultures are diluted so that the final inoculum is about 10^4 colony forming units/ml (CFU/ml).
# [2] = system: Pseudomonas aeruginosa ATCC 10145; assay: as above; format: cell-based; details: inoculum about 10^4 CFU/ml, 18-24 h at 37° C.
# Protocol: as §1
# S. pneumoniae UC 41 = assay: as above; format: cell-based; details: inoculum about 10^4 CFU/ml, 18-24 h at 37° C.
# Protocol: as §1
# S. pyogenes C 203 = assay: as above; format: cell-based; details: inoculum about 10^4 CFU/ml, 18-24 h at 37° C.
# Protocol: as §1
# [3] = system: S. epidermidis ATCC 12228; assay: as above; format: cell-based; details: inoculum about 10^4 CFU/ml, 18-24 h at 37° C.
# Protocol: as §1
# S. faecalis ATCC 7080 = assay: as above; format: cell-based; details: inoculum about 10^4 CFU/ml, 18-24 h at 37° C.
# Protocol: as §1
# S. aureus Tour = assay: as above; format: cell-based; details: inoculum about 10^4 CFU/ml, 18-24 h at 37° C.
# Protocol: as §1
# E. coli SKF 12140 = assay: as above; format: cell-based; details: inoculum about 10^4 CFU/ml, 18-24 h at 37° C.
# Protocol: as §1
# S. pyogenes L 49 = assay: In vivo test in mice experimentally infected with S. pyogenes L 49 (ED50); details: mice infected with S. pyogenes L 49; for ED50, route of administration os.: oral
# [4] = Isoelectric point (pI) by isoelectrofocusing with bioautography detection; format: physicochemical; details: IEF technique, polyacrylamide gel
# Source text: The isoelectrofocusing (IEF) technique coupled with bioautography detection has been used for the determination of the pI of representative compounds of the invention using the following materials: AMPHOLINE carrier ampholytes (40% w/v) were purchased from LKB Produketer AB, Bromma, Sweden. Acrylamide, N,N'-methylenbisacrylamide (BIS), N,N,N',N'-tetramethylethylenediamine (TEMED) and ammonium persulfate were from Bio Rad Laboratorie, Richmond, Calif., USA. Glycerol and Antibiotic agar N. 1 (Grove and Randall medium N. 1) were from E. Merck Darmstadt FRG. GEL FIX polyester sheets were purchased from Serva Feinbiochemica Heidelberg. Phenolindo (2,6-dichlorophenol) came from BDH Chemicals Ltd. Poole, England.
# IEF was made on gel slab using a LKB MULITPHOR 2117 cell and a Bio-Rad Power Supply Model 1420A. Slabs of 24.5×11.5 cm and 1 mm thickness were prepared on a sheet of GEL FIX. Polyacrylamide gels with a concentration of 8% T and with a cross-linkage of 4% C (30% T stock solution was prepared by dissolving 28.8 g of acrylamide and 1.2 g of bis-acrylamide in 100 ml distilled water), glycerol, 3.5% v/v, 2% AMPHOLINE, 0.05% ammonium persulphate as catalyst and 0.05% TEMED as accelerator. The carrier ampholite composition for 35 ml gelling solution was as follows:
# The electrode solutions, as recommended by LKB for the respective pH range, were:
# The gel was cooled to 4° C. with the aid of a LKB 2209 refrigerated constant temperature circulator. After prefocusing for 30 min. at 5 W, the samples (20 μl containing 0.2 to 2.5 μg of antibiotic) were loaded into the slot at the cathodic side. Electrofocusing was performed using 10 W constant power and was completed after 3-31/2 hours with a final potential of 1400 V.
# The pH values were determined by dividing a portion of the gel into 1 cm sections, and eluting the individual pieces at room temperature with 1 ml of 10 mM KCl prior to pH readings.
# The isoelectric point of each antibiotic was determined by interpolation on a curve obtained by plotting pH values versus the distance from the anode.
# Polyacrylamide gel was placed on a 3 mm layer of agar medium N. 1 inoculated with 1% of Bacillus subtilis ATCC 6633 spore (0.5 OD at 600 nm). After 10 min the gel was removed and the plate was incubated overnight at 37° C. and examined for inhibition zones. The contrast between the area of lysis and that of bacterial growth was enhanced by use of Phenolindo(2,6-dichlorophenol) 1% w/v (oxidation-reduction indicator).
smiles,measurement,setting,value
CCN1CCCC1CNC(=O)C1NC(=O)C2NC(=O)C(NC(=O)C3NC(=O)C4NC(=O)C(Cc5ccc(c(Cl)c5)Oc5cc3cc(c5O)Oc3ccc(cc3Cl)C2O)NC(=O)C(N)c2ccc(O)c(c2)Oc2cc(O)cc4c2)c2ccc(O)c(c2)-c2c(O)cc(O)cc21.Cl.Cl (stereo not shown) [Compound 79],MIC Proteus vulgaris X 19H ATCC 881,[1],32 µg/mL
same,MIC Pseudomonas aeruginosa ATCC 10145,[2],64 µg/mL
same,MIC S. pneumoniae UC 41,S. pneumoniae UC 41,0.06 µg/mL
same,MIC S. pyogenes C 203,S. pyogenes C 203,0.06 µg/mL
same,MIC S. epidermidis ATCC 12228,[3],0.06 µg/mL
same,MIC S. faecalis ATCC 7080,S. faecalis ATCC 7080,0.12 µg/mL
same,MIC S. aureus Tour,S. aureus Tour,0.06 µg/mL
same,MIC E. coli SKF 12140,E. coli SKF 12140,4 µg/mL
same,"ED50, route of administration os.",S. pyogenes L 49,> 300 mg/kg
same,"ED50, route of administration s.c",S. pyogenes L 49,1.25 mg/kg
CCCCCCN(CCCCCC)CCCNC(=O)C1NC(=O)C2NC(=O)C(NC(=O)C3NC(=O)C4NC(=O)C(Cc5ccc(c(Cl)c5)Oc5cc3cc(c5O)Oc3ccc(cc3Cl)C2OC2OC(CO)C(O)C(O)C2NC(C)=O)NC(=O)C(N)c2ccc(O)c(c2)Oc2cc(O)cc4c2)c2ccc(O)c(c2)-c2c(OC3OC(CO)C(O)C(O)C3O)cc(O)cc21 (stereo not shown) [Compound 44],Isoelectric point (pI),[4],8.7
CC(=O)NC1C(OC2c3ccc(c(Cl)c3)Oc3cc4cc(c3O)Oc3ccc(cc3Cl)CC3NC(=O)C(N)c5ccc(O)c(c5)Oc5cc(O)cc(c5)C(NC3=O)C(=O)NC4C(=O)NC3C(=O)NC2C(=O)NC(C(=O)NCC(=O)O)c2cc(O)cc(O)c2-c2cc3ccc2O)OC(CO)C(O)C1O (stereo not shown) [Compound 56],Isoelectric point (pI),[4],5.8
NCCCCCCNC(=O)C1NC(=O)C2NC(=O)C(NC(=O)C3NC(=O)C4NC(=O)C(Cc5ccc(c(Cl)c5)Oc5cc3cc(c5O)Oc3ccc(cc3Cl)C2O)NC(=O)C(N)c2ccc(O)c(c2)Oc2cc(O)cc4c2)c2ccc(O)c(c2)-c2c(O)cc(O)cc21 (stereo not shown) [Compound 102],MIC Proteus vulgaris X 19H ATCC 881,[1],64 µg/mL
same,MIC Pseudomonas aeruginosa ATCC 10145,[2],64 µg/mL
same,MIC S. pneumoniae UC 41,S. pneumoniae UC 41,0.06 µg/mL
same,MIC S. pyogenes C 203,S. pyogenes C 203,0.06 µg/mL
same,MIC S. epidermidis ATCC 12228,[3],0.06 µg/mL
same,MIC S. faecalis ATCC 7080,S. faecalis ATCC 7080,0.12 µg/mL
same,MIC S. aureus Tour,S. aureus Tour,0.06 µg/mL
same,MIC E. coli SKF 12140,E. coli SKF 12140,4 µg/mL
CCCCOC(=O)C(CCCNC(=N)N)NC(=O)C1NC(=O)C2NC(=O)C(NC(=O)C3NC(=O)C4NC(=O)C(Cc5ccc(c(Cl)c5)Oc5cc3cc(c5O)Oc3ccc(cc3Cl)C2O)NC(=O)C(N)c2ccc(O)c(c2)Oc2cc(O)cc4c2)c2ccc(O)c(c2)-c2c(O)cc(O)cc21 (stereo not shown) [Compound 103],MIC Proteus vulgaris X 19H ATCC 881,[1],> 128 µg/mL
same,MIC Pseudomonas aeruginosa ATCC 10145,[2],128 µg/mL
same,MIC S. pneumoniae UC 41,S. pneumoniae UC 41,0.5 µg/mL
same,MIC S. pyogenes C 203,S. pyogenes C 203,0.5 µg/mL
same,MIC S. epidermidis ATCC 12228,[3],0.5 µg/mL
same,MIC S. faecalis ATCC 7080,S. faecalis ATCC 7080,1 µg/mL
same,MIC S. aureus Tour,S. aureus Tour,2 µg/mL
same,MIC E. coli SKF 12140,E. coli SKF 12140,64 µg/mL
CCCCCN(CCCCC)CCCNC(=O)C1NC(=O)C2NC(=O)C(NC(=O)C3NC(=O)C4NC(=O)C(Cc5ccc(c(Cl)c5)Oc5cc3cc(c5O)Oc3ccc(cc3Cl)C2OC2OC(CO)C(O)C(O)C2NC(C)=O)NC(=O)C(N)c2ccc(O)c(c2)Oc2cc(O)cc4c2)c2ccc(O)c(c2)-c2c(OC3OC(CO)C(O)C(O)C3O)cc(O)cc21 (stereo not shown) [Compound 43],Isoelectric point (pI),[4],8.7
CN(C)CCN(C)C(=O)C1NC(=O)C2NC(=O)C(NC(=O)C3NC(=O)C4NC(=O)C(Cc5ccc(c(Cl)c5)Oc5cc3cc(c5O)Oc3ccc(cc3Cl)C2O)NC(=O)C(N)c2ccc(O)c(c2)Oc2cc(O)cc4c2)c2ccc(O)c(c2)-c2c(O)cc(O)cc21 (stereo not shown) [Compound 93],MIC Proteus vulgaris X 19H ATCC 881,[1],64 µg/mL
same,MIC Pseudomonas aeruginosa ATCC 10145,[2],64 µg/mL
same,MIC S. pneumoniae UC 41,S. pneumoniae UC 41,0.06 µg/mL
same,MIC S. pyogenes C 203,S. pyogenes C 203,0.06 µg/mL
same,MIC S. epidermidis ATCC 12228,[3],0.06 µg/mL
same,MIC S. faecalis ATCC 7080,S. faecalis ATCC 7080,0.12 µg/mL
same,MIC S. aureus Tour,S. aureus Tour,0.06 µg/mL
same,MIC E. coli SKF 12140,E. coli SKF 12140,8 µg/mL
same,"ED50, route of administration os.",S. pyogenes L 49,> 300 mg/kg
same,"ED50, route of administration s.c",S. pyogenes L 49,1.25 mg/kg
NC1C(=O)NC2Cc3ccc(c(Cl)c3)Oc3cc4cc(c3O)Oc3ccc(cc3Cl)C(O)C3NC(=O)C(NC(=O)C4NC(=O)C(NC2=O)c2cc(O)cc(c2)Oc2cc1ccc2O)c1ccc(O)c(c1)-c1c(O)cc(O)cc1C(C(=O)NCC(=O)O)NC3=O (stereo not shown) [Compound 65],Isoelectric point (pI),[4],5.8
CN(C)CCCCNC(=O)C1NC(=O)C2NC(=O)C(NC(=O)C3NC(=O)C4NC(=O)C(Cc5ccc(c(Cl)c5)Oc5cc3cc(c5O)Oc3ccc(cc3Cl)C2O)NC(=O)C(N)c2ccc(O)c(c2)Oc2cc(O)cc4c2)c2ccc(O)c(c2)-c2c(O)cc(O)cc21.O=C(O)C(F)(F)F.O=C(O)C(F)(F)F (stereo not shown) [Compound 97],MIC Proteus vulgaris X 19H ATCC 881,[1],32 µg/mL
same,MIC Pseudomonas aeruginosa ATCC 10145,[2],32 µg/mL
same,MIC S. pneumoniae UC 41,S. pneumoniae UC 41,0.12 µg/mL
same,MIC S. pyogenes C 203,S. pyogenes C 203,0.06 µg/mL
same,MIC S. epidermidis ATCC 12228,[3],0.06 µg/mL
same,MIC S. faecalis ATCC 7080,S. faecalis ATCC 7080,0.12 µg/mL
same,MIC S. aureus Tour,S. aureus Tour,0.12 µg/mL
same,MIC E. coli SKF 12140,E. coli SKF 12140,8 µg/mL
same,"ED50, route of administration os.",S. pyogenes L 49,> 300 mg/kg
same,"ED50, route of administration s.c",S. pyogenes L 49,0.54 mg/kg
COC(=O)CNC(=O)C1NC(=O)C2NC(=O)C(NC(=O)C3NC(=O)C4NC(=O)C(Cc5ccc(c(Cl)c5)Oc5cc3cc(c5O)Oc3ccc(cc3Cl)C2OC2OC(CO)C(O)C(O)C2NC(C)=O)NC(=O)C(N)c2ccc(O)c(c2)Oc2cc(O)cc4c2)c2ccc(O)c(c2)-c2c(OC3OC(CO)C(O)C(O)C3O)cc(O)cc21 (stereo not shown) [Compound 47],Isoelectric point (pI),[4],7.8
CCCCCCN(CCCCCC)CCCNC(=O)C1NC(=O)C2NC(=O)C(NC(=O)C3NC(=O)C4NC(=O)C(Cc5ccc(c(Cl)c5)Oc5cc3cc(c5O)Oc3ccc(cc3Cl)C2O)NC(=O)C(N)c2ccc(O)c(c2)Oc2cc(O)cc4c2)c2ccc(O)c(c2)-c2c(O)cc(O)cc21 (stereo not shown) [Compound 62],Isoelectric point (pI),[4],8.6
CN(C)CCNC(=O)C1NC(=O)C2NC(=O)C(NC(=O)C3NC(=O)C4NC(=O)C(Cc5ccc(c(Cl)c5)Oc5cc3cc(c5O)Oc3ccc(cc3Cl)C2O)NC(=O)C(N)c2ccc(O)c(c2)Oc2cc(O)cc4c2)c2ccc(O)c(c2)-c2c(O)cc(O)cc21.Cl.Cl (stereo not shown) [Compound 94],MIC Proteus vulgaris X 19H ATCC 881,[1],32 µg/mL
same,MIC Pseudomonas aeruginosa ATCC 10145,[2],16 µg/mL
same,MIC S. pneumoniae UC 41,S. pneumoniae UC 41,0.06 µg/mL
same,MIC S. pyogenes C 203,S. pyogenes C 203,0.06 µg/mL
same,MIC S. epidermidis ATCC 12228,[3],0.06 µg/mL
same,MIC S. faecalis ATCC 7080,S. faecalis ATCC 7080,0.12 µg/mL
same,MIC S. aureus Tour,S. aureus Tour,0.06 µg/mL
same,MIC E. coli SKF 12140,E. coli SKF 12140,4 µg/mL
same,"ED50, route of administration os.",S. pyogenes L 49,> 300 mg/kg
same,"ED50, route of administration s.c",S. pyogenes L 49,1.25 mg/kg
NCCCCNC(=O)C1NC(=O)C2NC(=O)C(NC(=O)C3NC(=O)C4NC(=O)C(Cc5ccc(c(Cl)c5)Oc5cc3cc(c5O)Oc3ccc(cc3Cl)C2O)NC(=O)C(N)c2ccc(O)c(c2)Oc2cc(O)cc4c2)c2ccc(O)c(c2)-c2c(O)cc(O)cc21 (stereo not shown) [Compound 99],MIC Proteus vulgaris X 19H ATCC 881,[1],32 µg/mL
same,MIC Pseudomonas aeruginosa ATCC 10145,[2],32 µg/mL
same,MIC S. pneumoniae UC 41,S. pneumoniae UC 41,0.12 µg/mL
same,MIC S. pyogenes C 203,S. pyogenes C 203,0.06 µg/mL
same,MIC S. epidermidis ATCC 12228,[3],0.06 µg/mL
same,MIC S. faecalis ATCC 7080,S. faecalis ATCC 7080,0.12 µg/mL
same,MIC S. aureus Tour,S. aureus Tour,0.06 µg/mL
same,MIC E. coli SKF 12140,E. coli SKF 12140,8 µg/mL
